The text below walks through data of patent US12195558B2, “Targeted delivery system and methods of use therefor” (SANFORD BURNHAM PREBYS MEDICAL DISCOVERY INSTITUTE, priority 2015, dated 2025).

The target of data set [1] is T1, p32 (Homo sapiens, UniProt Q07021).
T1 construct: made in house; host or cells: E. coli Rosetta-gami-2 (Novagen)
T1 sequence (Q07021 74-282): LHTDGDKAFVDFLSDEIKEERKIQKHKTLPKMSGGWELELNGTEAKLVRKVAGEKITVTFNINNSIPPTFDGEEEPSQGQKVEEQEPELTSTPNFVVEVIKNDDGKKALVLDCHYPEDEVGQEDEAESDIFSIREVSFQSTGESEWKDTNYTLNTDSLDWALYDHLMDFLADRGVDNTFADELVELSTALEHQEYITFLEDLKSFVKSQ
Briefly: Binding of peptide-displaying T7 phage to p32-coated magnetic beads. Conditions: phage-displayed peptide; relative to LyP-1. Here is the method: FIG. 10 is a bar graph showing that the p32 binding of the RGXR(S/T) motif (SEQ ID NOs: 4 and 5) in the exemplary TT1 peptide (SEQ ID NO: 3) was not dependent on the cyclic structure and compatible with flanking sequences. Phage clones displaying the indicated peptides were incubated in p32-coated magnetic microbeads. After washing to remove non-bound phage, specifically bound phage were quantified.
Milligram quantities of recombinant His-tagged p32 protein were expressed in E. coli and coated onto Ni-NTA magnetic beads, and biopanning was performed using two T7 bacteriophage peptide libraries (cyclic Cx7C and linear X7 library).
(§1) Variant peptide-encoding genomic DNA of phage was sequenced and analyzed for the presence of consensus motifs. After two rounds of selection, both linear and cyclic libraries converged to contain an RGXRS (SEQ ID NO: 4) pentapeptide motif (see FIG. 2B). The binding of RGXRS (SEQ ID NO: 4)-displaying phage to p32 was specific, as these phage bound to magnetic beads coated with p32 protein and not to beads coated with ligand-binding b1b2 domain of the cell and tissue penetration receptor NRP-1 or BSA (see FIG. 3).
(§2) An exemplary RGXRS (SEQ ID NO: 4) pentapeptide motif-containing peptide with the sequence CKRGARSTC (SEQ ID NO: 3) was designated as the […] and used it for further studies. Mutating any amino acid in the consensus motif of TT1 abolished the phage binding to p32. This new peptide conferred about 15-fold stronger phage binding to immobilized p32 protein than did the canonical LyP-1 peptide.

The target of the next data set is T2, NRP-1 b1b2 domain (Homo sapiens, UniProt O14786).
T2 sequence (O14786 273-586 limits assumed): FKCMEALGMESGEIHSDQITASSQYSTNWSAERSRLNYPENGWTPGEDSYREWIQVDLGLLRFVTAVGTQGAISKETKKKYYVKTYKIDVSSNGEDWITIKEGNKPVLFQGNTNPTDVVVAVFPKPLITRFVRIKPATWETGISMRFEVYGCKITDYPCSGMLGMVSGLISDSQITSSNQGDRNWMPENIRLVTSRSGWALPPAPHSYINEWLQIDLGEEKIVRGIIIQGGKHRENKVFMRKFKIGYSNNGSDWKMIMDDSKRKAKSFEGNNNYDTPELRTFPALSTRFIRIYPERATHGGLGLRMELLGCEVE
Briefly: Binding of peptide-displaying T7 phage to NRP-1 b1b2-coated magnetic beads. To be noted: 30 minutes at 37° C., p32 versus NRP-1 b1b2 beads. As to the method:
FIG. 9 is a bar graph showing proteolytic switching of binding specificity of an exemplary TT1 peptide (SEQ ID NO: 3). T7 phage displaying an exemplary TT1 peptide (SEQ ID NO: 3) were exposed to increasing concentrations of crystalline trypsin and incubated for 30 minutes at 37° C. After treatment, phage were incubated with magnetic beads coated with either p32 (decending hatching left to right) or NRP-1 b1b2 (ascending hatching left to right) protein, followed by washes to remove unbound phage and quantitation of specifically bound phage.
as §1
The p32 binding motif with consensus sequence RGXRS (SEQ ID NO: 4; i.e., the RGXRS (SEQ ID NO: 4) pentapeptide motif) contains a cryptic RGXR CendR element that can be unmasked by a tryptic cleavage. […]

Data set [2] has as its target T1, p32. Nature of the data set: Fluorescence polarization assay with synthetic peptides on p32. The class given is binding. Conditions: for binding to p32 in fluorescence polarization assay (in words): synthetic peptides.
Description: (§3) FIGS. 4A and 4B are plots showing a comparison of the binding of LyP-1 (SEQ ID NO: 7; diamonds) and TT1 (SEQ ID NO: 3; squares) to p32 in a fluorescence polarization assay. […] NRP-1 was used as a control protein.
FIG. 5 is a plot showing that P32-TT1 (CKRGARSTC; SEQ ID NO: 3) and LyP-1 (SEQ ID NO: 7) peptides competed for binding to the P32 protein. […] Squares: p32-TT1; Diamonds: LyP-1; X: RPARPAR peptide (SEQ ID NO: 14).
as §2

The target of the next data set is NRP-1 (Homo sapiens, UniProt O14786). Nature of the data set: Fluorescence polarization assay on NRP-1 (control protein). The class given is binding. Conditions: NRP-1 as control protein.
Description: as §3

Another data set has as its system 4T1 breast cancer cells. Briefly: In vitro binding and internalization of FAM-labeled peptide in 4T1 cells. To be noted: 100 μM FAM-labeled peptide, 1 hour at 37° C. The class given is cell-based. As to the method:
(§4) FIGS. 6A and 6B are fluorescence micrographs showing internalization of CKRGARSTC (TT1; SEQ ID NO: 3) peptide in breast tumor cells in vitro. 100 μM FAM-labeled peptides were incubated with 4T1 (FIG. 6A) or MCF10 (FIG. 6B) breast cancer cells for 1 hour at 37° C. in DMEM high glucose/10% serum medium. Cells were washed, fixed, stained with anti-FITC antibody, and MITOTRACKER® (Life Technologies) or phalloidin as indicated. Scale bars: 20 μm.
(§5) The ability of the TT1 Peptide to bind to cultured breast tumor cells was tested in vitro.

The test system of data set [3] is MCF10 breast cancer cells. Nature of the data set: In vitro binding and internalization of FAM-labeled peptide in MCF10 cells. To be noted: 100 μM FAM-labeled peptide, 1 hour at 37° C. The format is cell-based. Here is the method: as §4, §5
The subject of data set [4] is orthotopic 4T1 breast tumors. Briefly: In vivo homing of intravenous FAM-labeled peptide, 4T1 tumors. Details: species or system mice. Conditions: 4T1 syngeneic tumors, 200 μg FAM-labeled peptide i.v., 2 hours. As to the method: (§6) FIGS. 7A and 7B are photographs depicting in vivo homing of an exemplary TT1 peptide. 200 μg of FAM-labeled TT1 (SEQ ID NO: 3) peptide or control peptide in PBS was intravenously injected to mice bearing orthotopic 4T1 (FIG. 7A) or MCF7 (FIG. 7B) breast tumors. The peptides were allowed to circulate for 2 hours and organs were collected and photographed under white (top panels) or UV (bottom panels) light. Arrows point to the tumors of TT1 (SEQ ID NO: 3)-injected mice. Note robust signal (white in black and white versions and green in color versions of the Figures) indicating homing of TT1 (SEQ ID NO: 3) peptide to the tumor in both models. H: heart; Lu: lung; Li: liver; Ki: kidney; Sp: spleen; T: tumor.

Data set [5] concerns orthotopic MCF7 breast tumors. Briefly: In vivo homing of intravenous FAM-labeled peptide, MCF7 tumors. Conditions: 200 μg FAM-labeled peptide i.v., 2 hours. Details: species or system mice. Here is the method:
as §6

The subject of another data set is MDA-MB-231 xenografts. Nature of the data set: In vivo homing of intravenous peptide, MDA-MB-231 xenografts. Details: species or system mice. Conditions: i.v.
The test system of another data set is atherosclerotic plaques. Nature of the data set: Homing to atherosclerotic plaques in ApoE null mice on high-fat diet. The class given is in vivo. To be noted: for homing to and penetration into plaque tissue: 100 mg FAM labeled peptide i.v., one hour. As to the method: ApoE null mice that had been kept on a high-fat diet were intravenously injected with […] of the FAM labeled peptides. One hour later, the mice were perfused through the heart under anesthesia, and tissues were collected. The panels show accumulation of FAM labeled peptides visualized with UV excitation. The center two and right two panels show atherosclerotic aortas that were sectioned at the aortic root level and examined by confocal microscopy.

Data set [6] in a line: Aggregation of peptide-coated nanoparticles. The class given is physicochemical. To be noted: peptide on nanoparticles. An excerpt:
The linear TT1 Peptide was selected for further study as a D[KLAKLAK]2 (SEQ ID NO: 42) conjugate on NWs. The CGKRK (SEQ ID NO: 6) and LyP-1 Peptides were included for comparison.

Bridge positions count the residues as written; N and C are the ends. Ends that are not written are not given here.

Sequence of NRP-1 (O14786 22-923): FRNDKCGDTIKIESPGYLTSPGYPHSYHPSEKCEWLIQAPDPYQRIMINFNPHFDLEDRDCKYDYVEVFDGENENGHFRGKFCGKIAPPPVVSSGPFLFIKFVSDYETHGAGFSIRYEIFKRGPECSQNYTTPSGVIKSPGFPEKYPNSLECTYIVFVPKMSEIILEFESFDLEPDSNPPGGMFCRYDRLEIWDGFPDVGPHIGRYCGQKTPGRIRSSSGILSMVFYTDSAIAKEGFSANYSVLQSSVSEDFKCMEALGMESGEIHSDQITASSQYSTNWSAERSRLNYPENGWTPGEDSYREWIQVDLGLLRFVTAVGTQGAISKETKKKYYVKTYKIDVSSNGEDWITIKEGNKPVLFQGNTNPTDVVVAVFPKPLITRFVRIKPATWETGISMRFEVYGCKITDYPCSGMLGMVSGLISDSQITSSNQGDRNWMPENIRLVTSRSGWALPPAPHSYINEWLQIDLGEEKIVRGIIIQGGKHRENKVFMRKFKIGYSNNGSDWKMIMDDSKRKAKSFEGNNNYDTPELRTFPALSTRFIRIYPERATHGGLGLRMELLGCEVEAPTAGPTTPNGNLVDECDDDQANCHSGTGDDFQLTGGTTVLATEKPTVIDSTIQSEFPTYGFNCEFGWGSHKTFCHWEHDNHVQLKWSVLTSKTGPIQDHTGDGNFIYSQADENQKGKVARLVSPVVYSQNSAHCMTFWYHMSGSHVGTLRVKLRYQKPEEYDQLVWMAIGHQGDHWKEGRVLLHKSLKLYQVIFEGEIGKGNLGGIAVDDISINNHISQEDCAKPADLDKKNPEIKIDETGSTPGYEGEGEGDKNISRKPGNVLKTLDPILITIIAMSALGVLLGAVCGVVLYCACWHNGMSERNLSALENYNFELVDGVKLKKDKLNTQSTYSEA

As to “CKRGARSTC (disulfide 1-9 (inferred)) [TT1 Peptide]”, the “phage binding to immobilized p32 protein, fold stronger than the canonical LyP-1 peptide” value with p32 [1] is “about 15 fold”. Further, the “binding specificity after exposure to trypsin” value with NRP-1 b1b2 domain is reported as “affinity switching from p32 to NRP-1 b1b2”. Moreover, the “inhibition of binding of labeled TT1 to P32 by unlabeled peptide” value with p32 [2] (competition, fluorescence polarization) was “could be inhibited”. In addition, the “binding site on p32” value in the data set with p32 [2] (fluorescence polarization) is “shared the binding site on p32 with the LyP-1 peptide”. Moreover, in the data set with p32 [2] (method not stated at the place), the “affinity for p32 (in words)” value is recorded as “high affinity for p32”. Further, the “binding to p32 in fluorescence polarization assay (in words)” value in the data set with p32 [2] is given as “specific”; with p32 [2] (listed as TT1), “bound to p32 with a higher affinity than LyP-1”. Further, in the data set with NRP-1, the “binding to NRP-1 in fluorescence polarization assay (in words)” value is “only background binding”. The “cell surface binding and internalization” value in the data set with 4T1 breast cancer cells was “rapidly bound to the surface of 4T1 and MCF10 breast cancer cells and was internalized over time”; in data set [3], “rapidly bound to the surface of 4T1 and MCF10 breast cancer cells and was internalized over time”. Moreover, the tumor homing result is “homed to breast tumors” in [4]; “robust signal” in [4] (listed as TT1); “homed to breast tumors” in data set [5]; “robust signal” in data set [5] (listed as TT1); “homed to breast tumors” with MDA-MB-231 xenografts. The “homing to and penetration into plaque tissue” value in the data set on atherosclerotic plaques is “homed to and penetrated atherosclerotic lesions”; in the data set with atherosclerotic plaques (listed as TT1), “homed to and penetrated into plaque tissue as well as or better than LyP-1”. In the data set on atherosclerotic plaques (ApoE null mice on high-fat diet), the “plaque homing compared with LyP-1 peptide” value was “more robust than seen with the LyP-1 peptide”. In addition, in data set [6], the “aggregation of the peptide-coated nanoparticles” value is reported as “tended to cause aggregation of the peptide-coated nanoparticles”.
